Laboratory results from ChEMBL document CHEMBL1153937, “Synthesis and antiviral evaluation of thieno[3,4-d]pyrimidine C-nucleoside analogues of 2',3'-dideoxy- and 2',3'-dideoxy-2',3'-didehydro-adenosine and -inosine” (Bioorg Med Chem, 2009).
The source made the active and inactive calls. The rule behind the calls is not given here.

Key:
[1] = test system: Dengue virus; assay: Antiviral activity against Dengue virus at 75 uM; assay type: functional, organism-based
[2] = test system: Yellow fever virus; assay: Antiviral activity against Yellow fever virus at 75 uM; assay type: functional, organism-based
[3] = test system: West Nile virus; assay: Antiviral activity against West Nile virus at 75 uM; assay type: functional, organism-based
[4] = Cytotoxicity against human MT4 cells by MTS method; assay type: cell-based
[5] = test system: Human immunodeficiency virus 1; assay: Antiviral activity against HIV1 BH10 in human MT4 cells assessed as inhibition of virus-induced cytopathogenicity after 4 days by MTS method; assay type: functional, organism-based, Human immunodeficiency virus type 1 BH10; settings: Human immunodeficiency virus 1, MT4, 96 h
[6] = test system: L1210; assay: Growth inhibition of mouse L1210 cells; assay type: functional, cell-based
[7] = test system: HL-60; assay: Growth inhibition of human HL60 cells; assay type: functional, cell-based
[8] = test system: CCRF S-180; assay: Growth inhibition of mouse S180 cells; assay type: functional, cell-based

For `OC[C@H]1O[C@@H](c2scc3c(=S)[nH]cnc23)[C@H](O)[C@@H]1O`, the Activity [1] was “inactive”, the Activity [2] was “inactive” and the Activity [3] was “inactive”. For the same compound, the CC50 [4] was 2.9 µM, the EC50 [5] was > 2.9 µM and the IC50 [6] was 17.6 µM. For the same compound, the IC50 [7] was 8.17 µM and the IC50 [8] was 29.1 µM.

For `OC[C@@H]1CC[C@H](c2scc3c(O)ncnc23)O1`, the Activity [1] was “inactive”, the Activity [2] was “inactive” and the Activity [3] was “inactive”. The CC50 [4] was > 100 µM and the EC50 [5] was > 100 µM.

In the case of `O=c1[nH]cnc2c([C@@H]3O[C@H](CO)[C@@H](O)[C@H]3O)scc12`, the Activity [1] is reported as “inactive”, the Activity [2] is reported as “inactive” and the Activity [3] is reported as “inactive”. The CC50 [4] was > 100 µM and the EC50 [5] was > 100 µM.

With `Nc1ncnc2c([C@H]3CC[C@@H](CO)O3)scc12` the Activity [1] was “inactive”, the Activity [2] was “inactive” and the Activity [3] was “inactive”. For the same compound, the CC50 [4] was > 75 µM and the EC50 [5] was > 75 µM.

With `CSc1ncnc2c([C@H]3C=C[C@@H](CO)O3)scc12` the Activity [1] was “inactive”, the Activity [2] was “inactive” and the Activity [3] was “inactive”. For the same compound, the CC50 [4] was 70 µM and the EC50 [5] was > 70 µM.

For `Cc1cn([C@H]2C[C@H](N=[N+]=[N-])[C@@H](CO)O2)c(=O)[nH]c1=O` [ZIDOVUDINE], the CC50 [4] was 61 µM and the EC50 [5] was 0.009 µM.

In the case of `OC[C@@H]1C=C[C@H](c2scc3c(O)ncnc23)O1`, the Activity [1] is reported as “inactive”, the Activity [2] is reported as “inactive” and the Activity [3] is reported as “inactive”. The CC50 [4] was > 100 µM and the EC50 [5] was > 100 µM.

With `Nc1ncnc2c([C@H]3C=C[C@@H](CO)O3)scc12` the Activity [1] was “inactive”, the Activity [2] was “inactive” and the Activity [3] was “inactive”. For the same compound, the CC50 [4] was 7.3 µM and the EC50 [5] was > 7.3 µM.
